Laboratory results as given in US9149492B2, “Method for selectively inhibiting ACAT1 in the treatment of alzheimer's disease” (Trustees of Dartmouth College, priority 2008, dated 2015).
Peptide text beside a SMILES is read from it.

Columns and labels:
[1] = tested on: hippocampal neurons from A1+/Alz mice; experiment: 24SOH treatment of hippocampal neurons, hAPP and HMGR content; format: cell-based, mouse
Protocol: Hippocampal neurons were isolated from A1+/Alz and A1−/Alz mice at postnatal day 5 according to standard protocols (Brewer (1997) J. Neurosci. Methods 71:143-155; Price & Brewer (2001) In Protocols for Neural Cell Culture. Fedoroff & Richardson, editors. Totowa, N.J.: Humana Press, Inc. 255-264). Cells were seeded in 6-well dishes in triplicates at 300,000 cells/well, and grown in 3 ml/well Neurobasal A medium with 1×B27, 0.5 mM L-Gln and 5 ng/ml FGF for 14 days. Half of the medium was replaced with […] fresh media once every 7 days. Forty-eight hours after the second media replacement, 50 μCi of [^3H] sodium acetate (100 mCi/mmol) in PBS was added per well for 3 hours. Lipids in cells and in media were extracted, saponified, and analyzed by using the same TLC system described herein. To minimize sterol oxidation, samples were protected from light and heat during lipid extraction, and were analyzed without storage. To improve separation, after sample loading, the TLC plate was placed under vacuum for 30 minutes prior to chromatography. ^3H-labeled sterol bands were identified based on iodine staining of unlabeled sterols added to samples prior to lipid extraction. Rf values: lanosterol, 0.5; cholesterol, 0.38; 24SOH, 0.2. The bands were scraped off and counted. For each labeled sterol, the counts present in cells and in media were added to calculate the synthesis rate for that sterol. Cholesterol esterification in intact cells was conducted according to established methods (Chang, et al. (1986) Biochemistry 25:1693-1699); the ^3H-oleate pulse time was 3 hours.
To test this, hippocampal neurons from A1+/Alz mice were treated with 24SOH, and the hAPP protein content and the HMGR protein content were monitored in parallel.

[2] = tested on: WT or A1-microglia; experiment: Pulse-chase of intracellular oAβ42 degradation in microglia with lysosomal inhibitors; format: cell-based, mouse; settings: pre-incubation with inhibitor, 0.5 μM oAβ 30 minutes, 6 hours chase
Protocol: WT or A1-microglia were pretreated with DMSO only; with bafilomycin A1 (BafA1), a lysosomal v-ATPase inhibitor (250 nM); with Ac-LVK-CHO, a cell permeable cathepsin B inhibitor (CapB I) at 1 μM; or with pepstatin A methyl ester, a cell permeable aspartyl peptidase inhibitor at 25 μM, for 60 minutes. Cells with or without the inhibitors were further incubated with 0.5 μM oAβ for 30 minutes. Cells were washed with pre-warmed PBS (twice) and pre-warmed medium (once) and then further incubated in fresh serum-free DMEM/F-12 (50:50) for 6 hours. At the end of incubation, cells were washed with PBS twice and lysed with 1% SDS containing a protease inhibitor cocktail. Intracellular oAβ levels were examined by ELISA. The values were normalized by cellular protein contents. The data are averages of 3-4 independent experiments. (mean±SEM, n.s. not significant, *p<0.05, p<0.01, ***p<0.001).
Pulse-chase of oAβ42 was also carried out (FIG. 4A) and the fate of oAβ42 was monitored via an ELISA assay.

[3] = tested on: AD mice; settings: in vivo, cited from earlier work
[4] = tested on: transgenic mice expressing human APP(751) containing the London (V717I) and Swedish (K670M/N671L) mutations; settings: cited from earlier work
[5] = tested on: WT microglia; experiment: Oligomeric Aβ clearance from medium by microglia; format: cell-based, mouse; settings: 1 μM pretreatment 24 hours, then 0.5 μM oAβ 18 hours
Protocol: WT or A1-microglia were treated with K604 at 1 μM in DMEM/F-12 (50:50) with 10% FBS for 24 hours. Control (Veh) or K604-treated microglia were subsequently incubated with 0.5 μM oAβ in serum-free DMEM/F-12 (50:50) containing 10 μg/ml BSA for 18 hours. At the end of incubation, the media were collected and the residual oAβ levels were detected by western blot analysis. Quantification was performed with image J software (mean±SEM, ***p<0.001).
Primary microglia from normal (WT) and Acat1-knockout (A1−) mouse brains were cultured in vitro. Oligomeric Aβ42 (0.5 μM) in serum-free DMEM/F-12 (50:50) medium containing 10 μg/ml BSA was added to the culture and the culture was incubated for 0, 3, 6, 12 or 18 hours. The remaining Aβ levels (1+2+3+4mers) in the media were analyzed by western blot analysis.
Clearance of oAβ in WT microglia and WT microglia pretreated with the ACAT1-selective inhibitor K604 was also determined.

[6] = target: mouse ACAT1 (Mus musculus (Mouse), UniProt Q61263); experiment: ACAT1 western blot in NIH-3T3 fibroblasts transfected with microRNA; format: cell-based; settings: 48 hours post-transfection, GFP-positive cells
From the text: NIH-3T3 mouse fibroblasts were transiently transfected with one of several rAAV vectors encoding EmGFP and microRNA (miR) #52, #53, #54 or #55. Forty-eight hours post-transfection, GFP-positive cells were harvested by FACS. GFP-positive cells were washed then lysed in 10% SDS and syringe homogenized. Twenty microgram of protein per sample was subjected to SDS-PAGE. After western blot analysis, bands were quantified with ImageJ. ACAT1 intensity was normalized to GAPDH as a loading control and expressed as relative intensity.
Four different siRNA molecules (#52-#55; SEQ ID NOs:37-40; Table 3) targeting the mouse Acat1 gene were inserted into an endogenous mouse microRNA (miR) scaffold using Invitrogen's RNAi design tool. The artificial miRs were ligated into the mammalian expression vector pcDNA6.2-GW/EmGFP-miR. These. […] The miRs were delivered to the cells using a standard cDNA transfection protocol.

[7] = target: human ACAT2 (Homo sapiens (Human), UniProt O75908); settings: read-out: IC50 hACAT-2; cited from earlier work
Chain of human ACAT2 (O75908 whole entry): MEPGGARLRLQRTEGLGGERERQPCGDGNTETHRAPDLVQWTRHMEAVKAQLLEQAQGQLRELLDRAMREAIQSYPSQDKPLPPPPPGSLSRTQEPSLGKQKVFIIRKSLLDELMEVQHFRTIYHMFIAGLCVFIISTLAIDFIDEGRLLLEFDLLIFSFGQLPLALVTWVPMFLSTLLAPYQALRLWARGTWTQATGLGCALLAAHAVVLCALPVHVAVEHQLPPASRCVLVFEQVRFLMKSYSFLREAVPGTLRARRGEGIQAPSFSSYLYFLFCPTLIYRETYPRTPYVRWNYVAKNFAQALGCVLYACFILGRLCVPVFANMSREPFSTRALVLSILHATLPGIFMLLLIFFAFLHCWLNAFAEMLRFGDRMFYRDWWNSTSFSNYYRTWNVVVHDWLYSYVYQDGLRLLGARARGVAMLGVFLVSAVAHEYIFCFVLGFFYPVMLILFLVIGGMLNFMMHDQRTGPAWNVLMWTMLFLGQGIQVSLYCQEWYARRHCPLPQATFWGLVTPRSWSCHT

CC(C)[C@@H](O)CC[C@@H](C)[C@H]1CC[C@H]2[C@@H]3CC=C4C[C@@H](O)CC[C@]4(C)[C@H]3CC[C@]12C [24SOH, 24S-hydroxycholesterol]
HMGR protein content ([1]; 1 μM, within 3 hours): rapidly decreased
hAPP protein content ([1]; 1 μM, within 3 hours): rapidly decreased
hAPP mRNA level ([1]; 1-5 μM): without affecting
hAPP protein content ([1]; 1-5 μM): rapid decline

CC(=O)N[C@@H](CC(C)C)C(=O)N[C@H](C(=O)N[C@H](C=O)CCCCN)C(C)C [Ac-LVK-CHO] (Ac-Leu-Val-Lys-aldehyde)
difference in oAβ42 degradation between WT and A1-microglia [2]: abolished

CC(C)c1cc(C(C)C)c(CC(=O)NS(=O)(=O)Oc2c(C(C)C)cccc2C(C)C)c(C(C)C)c1 [CI 1011]
amyloid plaques ([3]; mouse): significantly reduced
cognitive deficits ([3]; mouse): rescued
mature/immature ratio of hAPP ([3]; mouse): decreases

CCCCCCCC[C@H](SCCCCCC)C(=O)Nc1c(SC)cc(C)nc1SC [CP-113,818]
spatial learning ([4]; mouse, in vivo): slightly improved
ectodomain shedding of endogenous APP in the brain ([4]; nontransgenic littermates): reduced
reduction of accumulation of amyloid plaques ([4]; two months of treatment): 88%-99%
reduction of membrane/insoluble Amyloid β levels ([4]; two months of treatment): 83%-96%
processing of both human APP and mouse APP [3]: inhibits
amyloid plaques ([3]; mouse): significantly reduced
cognitive deficits ([3]; mouse): rescued

CSc1cc(C)nc(SC)c1NC(=O)CN1CCN(CCSc2nc3ccccc3[nH]2)CC1 [K-604]
enhancement of ability to clear oAβ42 from the medium [5]: up to 65%
oAβ degradation in microglia [5]: promotes oAβ degradation

miR Negative Control: negative control miR 5′-TACTGCGCGTGGAGACG-3′ (SEQ ID NO:46), matches no known vertebrate gene (chemistry not given here)
Relative Intensity (ACAT1 normalized to GAPDH) [6]: 1.02

saucerneol B
IC50 [7]: 124 µM
